Experimental data as given in patent US6001331A, “Method of imaging amyloid deposits” (Warner-Lambert Company, priority 1998, dated 1999).
Like-named read-outs stand apart in the source and are kept apart here.

Legend:
[1] = molecular target: T1, βA(1-40) amyloid aggregates (Homo sapiens, UniProt P05067); assay: Competition assay with Thioflavin T (ThT) for binding to β(1-40) amyloid aggregates, fluorescence 96-well plate
T1 construct: lyophilized β(1-40) protein powder (which may be purchased from BACHEM); purchased BACHEM
T1 sequence (P05067 672-711 limits assumed): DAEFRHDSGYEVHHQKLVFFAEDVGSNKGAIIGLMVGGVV
Excerpt: Amyloid aggregates containing β(1-40) protein can also be made by methods well known to those skilled in the art. See, for example, Burdick D., Soreghan B., Kwon M., Kosmoski J., Knauer M., Henschen A., Yates J., Cotman C., and Glabe C. Assembly and aggregation properties of synthetic Alzheimer's A4/β amyloid peptide analogs. J. Biol. Chem., 267:546-554 (1992), which is hereby incorporated by reference. Briefly, lyophilized β(1-40) protein powder (which may be purchased from BACHEM) was dissolved at 10 mg/mL in hexafluoro-2-propanol and subsequently diluted to 500 μg/mL in 25 mM sodium phosphate buffer, pH 6 to induce the α-helix to β-sheet transition resulting in aggregate formation.
(§1) The ability of compounds of Formula I to compete with Thioflavin T (ThT) for binding to amyloid aggregates was measured using fluorescence in a 96-well fluorescence plate assay. As a compromise between sensitivity and signal and to facilitate comparisons between different amyloid fibrils, ThT is present at a concentration equal to the Kmapp of the particular amyloid fibril type and fibril concentrations yielding a similar fluorescence intensity are used. Insulin: 0.5 μM ThT, 2 μg per well. β(1-40): 20 μM ThT, 5 μg/well. All solutions are in 25 mM sodium phosphate buffer, pH 6.0, and the assay is performed at room temperature.
(§2) Using a multichannel pipettor, 100 μL of dilutions of the compound to be tested (0.001-30 μM final concentration in 3-fold steps) are placed in the bottom of Corning U-well polystyrene plates (Corning Company, Corning, N.Y.). 50 μL of ThT are then added to each well. The amyloid fibrils are then added to each well in a volume of 100 μL rapidly to mix the well contents. The plates are read within 5 to 30 minutes in a Millipore Cytofluor 2350 96-well fluorescence plate reader using an excitation filter of 440 nm (20 nm bandpass) and an emission filter of 485 nm (20 nm bandpass). ThT dye blanks were used to correct for the minimal fluorescence background which are subtracted from all data.
(§3) Results are expressed as % maximal fluorescence (no competing compound). […]

[2] = molecular target: Insulin amyloid aggregates; assay: Competition assay with Thioflavin T (ThT) for binding to insulin amyloid aggregates, fluorescence 96-well plate; conditions: 0.5 μM ThT, 2 μg per well fibrils, 25 mM sodium phosphate pH 6.0, room temperature
Experimental: Burke M. J. and Rougevie M. A., Cross-β Protein Structures. I. Insulin Fibrils. […] Briefly, lyophilized insulin protein powder dissolved at 10 mg/mL in 50 mM HCl was alternately heated to 95° C. and frozen in dry ice to form amyloid aggregates.
as §1
as §2, with “The plates are read within 5 to 30 minutes in a Millipore Cytofluor 2350 96-well fluorescence plate reader using an excitation filter of 440 nm (20 nm bandpass) and an emission filter of 485 nm (20 nm bandpass).” left out
as §3

[3] = 20 μM ThT, 5 μg/well fibrils, 25 mM sodium phosphate pH 6.0, room temperature, read-out: βA(1-40), IC50

Row | IC50 [1, 3] | IC50 [2] | SMILES | IC50 [1]
1 | 460 nM | 210 nM | CN(C)c1ccc(/C=C/c2sc3ccccc3[n+]2CCCC(c2ccccc2)c2ccccc2)cc1 [Example 33, (E)-2-[2-(4-Dimethylaminophenyl)vinyl]-3-(4,4-diphenylbutyl)benzothiazol-3-ium iodide] | 
2 | 2500 nM | 340 nM | COc1ccc2nc(/N=N/c3ccc(N(C)C)c4ccccc34)sc2c1 [Example 51, [4-(6-Methoxybenzothiazol-2-ylazo)naphthalen-1-yl]dimethylamine] | 
3 | 160 nM | 42 nM | CCCCCCC[n+]1c(/C=C/c2ccc(N3CCCC3)cc2)sc2ccccc21 [Example 46, (E)-3-Heptyl-2-[2-[(4-pyrrolidin-1-yl)phenyl]vinyl]benzothiazol-3-ium iodide] | 
4 | 160 nM | 27 nM | CCCC[n+]1c(/C=C/c2ccc(N(C)C)cc2)sc2ccccc21 [Example 11, (E)-2-[2-(4-Dimethylaminophenyl)vinyl]-3-butylbenzothiazol-3-ium iodide] | 
5 | 430 nM | 5.2 nM | CN(C)c1ccc(/C=C/c2sc3ccc(Cl)cc3[n+]2C)cc1 [Example 13, (E)-5-Chloro-2-[2-(4-dimethylaminophenyl)vinyl]-3-methylbenzothiazol-3-ium iodide] | 
6 | 430 nM | 26 nM | COc1ccc2c(c1)sc(/C=C/c1ccc(N(C)C)c3ccccc13)[n+]2C [Example 41, (E)-2-[2-(4-Dimethylaminonaphthalen-1-yl)vinyl]-6-methoxy-3-methylbenzothiazol-3-ium iodide] | 
7 | 180 nM | 6 nM | Cc1ccc2c(c1)sc(/C=C/c1ccc(N(C)C)cc1)[n+]2C [Example 17, (E)-2-[2-(4-Dimethylaminophenyl)vinyl]-3,6-dimethylbenzothiazol-3-ium iodide] | 
8 | 210 nM | 41 nM | CN(C)c1ccc(/C=C/c2sc3c4ccccc4ccc3[n+]2C)cc1 [Example 24, (E)-2-[2-(4-Dimethylaminophenyl)vinyl]-3-methylnaphtho[2,1-d]thiazol-3-ium iodide] | 
9 | 400 nM | 6 nM | CC[n+]1c(/C=C/c2ccc(N(C)C)cc2)sc2ccccc21 [Example 7, (E)-2-[2-(4-Dimethylaminophenyl)vinyl]-3-ethylbenzothiazol-3-ium iodide] | 
10 | 1300 nM | 1300 nM | CN(C)c1ccc(/N=N/c2nc3ccc(Cl)cc3s2)cc1 [Example 50, 6-Chloro-2-[[4-(dimethylamino)phenyl]azo]benzothiazole] | 
11 | > 100000 nM | 100000 nM | CN(C)c1ccc(/C=C/c2nc3cc(Cl)ccc3s2)cc1 [Example 1, (E)-{4-[2-(5-Chlorobenzothiazol-2-yl)vinyl]phenyl}dimethylamine] | 
12 | 410 nM | 10 nM | COc1ccc2c(c1)sc(N=Nc1ccc(N(C)C)cc1)[n+]2C [Example 53, 2-[[4-(Dimethylamino)phenyl]azo]-6-methoxy-3-methylbenzothiazol-3-ium methylsulfate] | 
13 | 240 nM | 34 nM | CN(C)c1ccc(/C=C/c2sc3ccccc3[n+]2Cc2ccc(-c3ccccc3)cc2)cc1 [Example 26, (E)-3-Biphenyl-4-ylmethyl-2-[2-(4-dimethylaminophenyl)vinyl]benzothiazol-3-ium iodide] | 
14 | 170 nM | 80 nM | CN(C)c1ccc(/C=C/c2sc3ccccc3[n+]2CCCCCOc2ccccc2)cc1 [Example 37, (E)-2-[2-(4-Dimethylaminophenyl)vinyl]-3-(5-phenoxypentyl)benzothiazol-3-ium iodide] | 

Row | SMILES | IC50 [1, 3] | IC50 [2] | IC50 [1]
15 | CN(C)c1ccc(/C=C/c2sc3ccc4ccccc4c3[n+]2C)c2ccccc12 [Example 42, (E)-2-[2-(4-Dimethylaminonaphthalen-1-yl)vinyl]-1-methylnaphtho[1,2-d]thiazol-1-ium toluene-4-sulfonate] | 250 nM | 42 nM | 
16 | CN(C)c1ccc(/C=C/c2sc3ccccc3[n+]2Cc2ccccc2)cc1 [Example 6, (E)-3-Benzyl-2-[2-(4-dimethylaminophenyl)vinyl]benzothiazol-3-ium bromide] |  | 12 nM | 110 nM
17 | CN(C)c1ccc(/C=C/c2sc3cc([N+](=O)[O-])ccc3[n+]2C)cc1 [Example 21, (E)-2-[2-(4-Dimethylaminophenyl)vinyl]-3-methyl-6-nitrobenzothiazol-3-ium toluene-4-sulfonate] | 1000 nM | 12 nM | 
18 | CN(C)c1ccc(/C=C/c2sc3ccc(F)cc3[n+]2Cc2ccccc2)cc1 [Example 15, (E)-2-[2-(4-Dimethylaminophenyl)vinyl]-3-benzyl-5-fluorobenzothiazol-3-ium bromide] |  | 32 nM | 170 nM
19 | CN(C)c1ccc(/C=C/c2sc3ccccc3[n+]2Cc2cccc(C(=O)c3ccccc3)c2)cc1 [Example 29, (E)-3-(3-Benzoylbenzyl)-2-[2-(4-dimethylaminophenyl)vinyl]benzothiazol-3-ium bromide] |  | 130 nM | 230 nM
